The values that follow come from ChEMBL document CHEMBL3991601, “The target landscape of clinical kinase drugs” (Science, 2017).

The source made the active and inactive calls. Cut-off read from the data, not from the text of the source, for most assays here: actives have a measured Kd and inactives only a lower limit.

The target in assay [1] is Protein kinase C alpha type (Homo sapiens, UniProt P17252).
Assay [2] has as its target cAMP-dependent protein kinase catalytic subunit beta (Homo sapiens, UniProt P22694).
For assay [3], the target named is Dual specificity mitogen-activated protein kinase kinase 1 (Homo sapiens, UniProt Q02750).
Chain of Dual specificity mitogen-activated protein kinase kinase 1 (Q02750 whole entry): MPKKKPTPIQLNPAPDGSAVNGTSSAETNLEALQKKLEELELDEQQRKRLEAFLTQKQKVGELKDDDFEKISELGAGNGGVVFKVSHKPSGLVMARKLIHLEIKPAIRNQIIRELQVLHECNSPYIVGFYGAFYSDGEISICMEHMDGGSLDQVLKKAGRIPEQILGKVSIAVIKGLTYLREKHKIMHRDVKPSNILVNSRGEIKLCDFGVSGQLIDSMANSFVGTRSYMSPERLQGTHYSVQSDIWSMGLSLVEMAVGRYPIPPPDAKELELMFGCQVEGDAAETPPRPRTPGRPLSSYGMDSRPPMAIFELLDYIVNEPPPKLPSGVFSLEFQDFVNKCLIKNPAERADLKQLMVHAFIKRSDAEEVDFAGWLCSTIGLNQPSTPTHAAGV
Assay [4] addresses Calcium/calmodulin-dependent protein kinase type II subunit gamma (Homo sapiens, UniProt Q13555).
The next assay addresses Focal adhesion kinase 1 (Homo sapiens, UniProt Q05397).
In another assay the target is T1, Glycine--tRNA ligase (Homo sapiens, UniProt P41250).
T1 sequence (P41250 whole entry): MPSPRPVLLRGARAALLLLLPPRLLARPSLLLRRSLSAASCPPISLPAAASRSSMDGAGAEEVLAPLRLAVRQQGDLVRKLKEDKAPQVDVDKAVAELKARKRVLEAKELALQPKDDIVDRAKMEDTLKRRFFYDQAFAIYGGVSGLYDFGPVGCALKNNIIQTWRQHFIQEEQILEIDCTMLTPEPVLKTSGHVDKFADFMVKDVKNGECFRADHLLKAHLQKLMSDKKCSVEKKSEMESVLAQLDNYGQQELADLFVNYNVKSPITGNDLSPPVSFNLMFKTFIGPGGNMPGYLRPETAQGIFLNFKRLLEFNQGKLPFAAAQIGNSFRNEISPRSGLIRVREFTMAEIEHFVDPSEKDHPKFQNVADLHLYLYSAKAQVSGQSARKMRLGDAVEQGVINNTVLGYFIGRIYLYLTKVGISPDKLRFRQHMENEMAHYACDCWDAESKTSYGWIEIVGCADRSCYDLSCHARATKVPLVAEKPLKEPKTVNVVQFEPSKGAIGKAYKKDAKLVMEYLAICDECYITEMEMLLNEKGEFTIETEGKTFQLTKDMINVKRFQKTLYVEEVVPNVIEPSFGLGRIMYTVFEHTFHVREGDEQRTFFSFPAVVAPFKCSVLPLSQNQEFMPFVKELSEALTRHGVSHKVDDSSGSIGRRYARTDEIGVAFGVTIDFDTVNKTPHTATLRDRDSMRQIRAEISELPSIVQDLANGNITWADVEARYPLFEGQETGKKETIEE

Assay [5] concerns the target Tyrosine-protein kinase FRK (Homo sapiens, UniProt P42685).
Another assay deals with T2, ADP/ATP translocase 2 (Homo sapiens, UniProt P05141).
T2 sequence (P05141 whole entry): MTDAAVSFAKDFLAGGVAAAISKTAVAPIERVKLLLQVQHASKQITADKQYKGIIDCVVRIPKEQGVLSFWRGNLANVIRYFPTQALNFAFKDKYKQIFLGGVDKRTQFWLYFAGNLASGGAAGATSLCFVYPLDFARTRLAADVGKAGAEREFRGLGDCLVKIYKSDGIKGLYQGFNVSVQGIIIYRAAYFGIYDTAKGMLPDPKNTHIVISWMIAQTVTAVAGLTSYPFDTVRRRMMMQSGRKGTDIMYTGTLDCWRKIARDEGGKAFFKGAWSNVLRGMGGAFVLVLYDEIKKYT

Assay [6] concerns the target T3, Thyroid hormone receptor-associated protein 3 (Homo sapiens, UniProt Q9Y2W1).
T3 sequence (Q9Y2W1 whole entry): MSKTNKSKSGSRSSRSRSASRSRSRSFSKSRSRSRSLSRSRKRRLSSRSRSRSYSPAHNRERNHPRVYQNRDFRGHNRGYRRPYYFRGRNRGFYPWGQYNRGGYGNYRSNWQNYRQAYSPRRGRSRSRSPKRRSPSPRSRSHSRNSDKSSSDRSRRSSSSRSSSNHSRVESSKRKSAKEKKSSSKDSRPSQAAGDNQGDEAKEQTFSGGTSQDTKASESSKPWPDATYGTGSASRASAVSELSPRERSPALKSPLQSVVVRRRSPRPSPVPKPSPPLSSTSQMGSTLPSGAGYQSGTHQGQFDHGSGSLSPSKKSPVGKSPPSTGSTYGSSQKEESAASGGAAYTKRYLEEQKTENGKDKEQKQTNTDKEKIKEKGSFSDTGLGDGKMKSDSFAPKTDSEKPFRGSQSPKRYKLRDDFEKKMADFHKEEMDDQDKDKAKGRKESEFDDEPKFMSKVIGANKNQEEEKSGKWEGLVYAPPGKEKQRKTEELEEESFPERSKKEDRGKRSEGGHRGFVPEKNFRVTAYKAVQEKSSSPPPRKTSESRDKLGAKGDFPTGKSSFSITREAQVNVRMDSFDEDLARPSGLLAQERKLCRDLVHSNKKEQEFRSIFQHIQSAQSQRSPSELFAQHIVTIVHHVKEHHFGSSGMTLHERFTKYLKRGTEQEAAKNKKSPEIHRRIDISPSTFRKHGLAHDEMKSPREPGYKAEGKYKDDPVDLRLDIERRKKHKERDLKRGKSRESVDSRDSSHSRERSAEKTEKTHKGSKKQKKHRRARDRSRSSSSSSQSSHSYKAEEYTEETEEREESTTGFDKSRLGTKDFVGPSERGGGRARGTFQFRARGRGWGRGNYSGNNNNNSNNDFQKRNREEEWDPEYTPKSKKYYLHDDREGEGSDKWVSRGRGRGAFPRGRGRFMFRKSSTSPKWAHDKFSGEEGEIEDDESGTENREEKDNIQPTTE
Note: in the data inactive means no Kd found up to 30 µM.

Chain of Focal adhesion kinase 1 (Q05397 whole entry): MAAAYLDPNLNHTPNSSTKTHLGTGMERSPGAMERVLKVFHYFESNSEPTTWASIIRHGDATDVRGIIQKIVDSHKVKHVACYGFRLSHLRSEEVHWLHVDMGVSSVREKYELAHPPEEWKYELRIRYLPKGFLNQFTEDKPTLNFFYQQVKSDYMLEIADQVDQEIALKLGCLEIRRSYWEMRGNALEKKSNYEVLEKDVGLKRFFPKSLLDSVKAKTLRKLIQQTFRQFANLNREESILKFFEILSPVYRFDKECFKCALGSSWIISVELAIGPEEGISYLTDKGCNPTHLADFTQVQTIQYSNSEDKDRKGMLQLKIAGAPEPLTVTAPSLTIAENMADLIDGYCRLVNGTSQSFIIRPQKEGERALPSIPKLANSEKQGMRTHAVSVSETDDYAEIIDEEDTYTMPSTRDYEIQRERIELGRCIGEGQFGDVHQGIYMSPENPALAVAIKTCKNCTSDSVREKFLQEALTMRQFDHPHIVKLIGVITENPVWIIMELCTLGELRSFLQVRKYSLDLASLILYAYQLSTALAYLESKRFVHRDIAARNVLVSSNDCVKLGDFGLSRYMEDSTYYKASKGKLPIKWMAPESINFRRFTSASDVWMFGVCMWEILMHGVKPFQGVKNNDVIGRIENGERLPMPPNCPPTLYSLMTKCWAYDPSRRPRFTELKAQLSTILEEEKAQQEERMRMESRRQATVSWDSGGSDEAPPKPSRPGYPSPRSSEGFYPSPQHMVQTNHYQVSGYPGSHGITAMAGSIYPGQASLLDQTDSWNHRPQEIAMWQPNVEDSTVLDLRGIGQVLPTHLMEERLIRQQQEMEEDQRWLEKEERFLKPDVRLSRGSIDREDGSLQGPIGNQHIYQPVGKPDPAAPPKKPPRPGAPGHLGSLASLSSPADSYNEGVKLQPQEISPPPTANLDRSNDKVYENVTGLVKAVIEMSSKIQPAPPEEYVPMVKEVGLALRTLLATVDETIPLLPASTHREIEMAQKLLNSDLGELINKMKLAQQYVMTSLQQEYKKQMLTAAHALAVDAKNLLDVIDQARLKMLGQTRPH
Chain of Tyrosine-protein kinase FRK (P42685 whole entry): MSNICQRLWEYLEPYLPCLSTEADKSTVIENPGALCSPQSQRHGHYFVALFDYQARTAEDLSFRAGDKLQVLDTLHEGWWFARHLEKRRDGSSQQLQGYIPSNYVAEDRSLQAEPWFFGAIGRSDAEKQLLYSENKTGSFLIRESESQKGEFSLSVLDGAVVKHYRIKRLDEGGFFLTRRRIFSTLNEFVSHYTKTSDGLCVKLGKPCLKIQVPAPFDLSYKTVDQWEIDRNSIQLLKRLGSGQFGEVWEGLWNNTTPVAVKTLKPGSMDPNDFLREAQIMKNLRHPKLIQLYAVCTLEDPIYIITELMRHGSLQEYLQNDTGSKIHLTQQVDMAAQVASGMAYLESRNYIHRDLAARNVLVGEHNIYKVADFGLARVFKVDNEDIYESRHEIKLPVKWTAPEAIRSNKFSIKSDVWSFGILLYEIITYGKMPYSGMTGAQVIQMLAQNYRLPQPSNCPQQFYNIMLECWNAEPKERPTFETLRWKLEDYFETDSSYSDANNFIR
Chain of Calcium/calmodulin-dependent protein kinase type II subunit gamma (Q13555 whole entry): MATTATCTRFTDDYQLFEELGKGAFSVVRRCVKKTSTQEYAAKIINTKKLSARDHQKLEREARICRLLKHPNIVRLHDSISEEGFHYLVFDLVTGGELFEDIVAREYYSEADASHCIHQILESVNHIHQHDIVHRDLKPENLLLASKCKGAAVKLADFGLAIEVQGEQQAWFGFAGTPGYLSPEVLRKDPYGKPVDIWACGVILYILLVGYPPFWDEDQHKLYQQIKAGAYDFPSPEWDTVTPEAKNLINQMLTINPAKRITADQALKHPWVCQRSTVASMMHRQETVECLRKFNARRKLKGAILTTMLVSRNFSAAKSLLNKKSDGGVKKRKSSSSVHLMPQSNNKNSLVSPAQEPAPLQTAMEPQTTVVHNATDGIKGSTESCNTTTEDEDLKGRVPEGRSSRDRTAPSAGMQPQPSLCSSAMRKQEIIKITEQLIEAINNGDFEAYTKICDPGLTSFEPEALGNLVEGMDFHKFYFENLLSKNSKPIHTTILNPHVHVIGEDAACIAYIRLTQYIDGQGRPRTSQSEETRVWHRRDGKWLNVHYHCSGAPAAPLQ

On to `Cc1cc(Nc2ncnc3ccc(NC4=NC(C)(C)CO4)cc23)ccc1Oc1ccn2ncnc2c1` [TUCATINIB], for which the Kd (in [1]; in assay [2]; in assay [3]; in [4]; at Focal adhesion kinase 1; on Glycine--tRNA ligase) was > 30 µM (inactive) throughout. The Kd (in assay [5]; on ADP/ATP translocase 2; in assay [6]) was > 30 µM (inactive) each time.

Turning to `CC(C)c1cc(CNc2nc(Nc3cc(C4CC4)[nH]n3)cc(N3CCN(C)CC3)n2)on1` [XL-228], the Kd (commonly the concentration at which binding is half-saturated) in assay [1] is 2.28 µM (active); in [2] it was > 30 µM (inactive); in assay [3] it was 7.03 µM; in [4] it was > 30 µM (inactive); at Focal adhesion kinase 1 it was 0.022 µM (active); on Glycine--tRNA ligase, > 30 µM (inactive). The Kd (in assay [5]; at ADP/ATP translocase 2; in assay [6]) was > 30 µM (inactive) in each case.

`CN1C/C=C/CCOc2cccc(c2)-c2ccnc(n2)Nc2cccc(c2)C1` [ZOTIRACICLIB]: the Kd in [1] is 0.885 µM (active); in [2], > 30 µM (inactive); in assay [3], > 30 µM (inactive); in [4], > 30 µM (inactive); at Focal adhesion kinase 1 it was > 30 µM (inactive); on Glycine--tRNA ligase, > 30 µM (inactive). In addition, the Kd (in assay [5]; at ADP/ATP translocase 2; in assay [6]) was > 30 µM (inactive) each time.
